How the values were obtained:
Assay type in all cases: cell-based, human
[1] = tested on: MiaPaCa-2-LVT; assay: Inhibition of proliferation (XTT), MiaPaCa-2-LVT; details: exposed for 4 days
Procedure: (§1) To analyze dose-response curves of each chemotherapeutic agent, a proliferation assay was performed. Table 6: Pancreas cancer cell lines to analyze efficacy of gemcitabine or oxaliplatin
(§2) Cells were seeded in 96well plates and after 4-6 hours gemcitabine or oxaliplatin was added in following concentrations: 1000, 500, 250, 100 and 20 ng/ml. The proliferation assay was incubated for 4 days at 37°C and 5% CO2. 50 µl XTT complete reagent (50 parts XTT + 1 part coupl. reagent mixed) was added and incubated at 37°C. Measurement of absorbance (cells plus supernatant) was done with the Tecan Safire after 3 h and 4 h. Inhibition of proliferation was calculated compared to medium values set as 100%. EC50 values for gemcitabine and oxaliplatin were calculated in the GraphPad Prism program.

[2] = tested on: Kato III cells; assay: Cell cycle analysis and cell growth, Kato III; details: Kato III; 5-FU 10 or 100 ng/ml, oxaliplatin 50 or 500 ng/ml; 96 hours
Procedure: Kato III cells, a human gastric tumor cell line, was cultivated in RPMI 1640 medium (Invitrogen) containing 20% FCS (Perbio) and 2 mM Glutamax (Invitrogen) at 37°C and 5% CO2, with or without cytostatic compounds. 5-FU (Neofluor from NeoCorp AG) was tested at a concentration of 10 or 100 ng/ml, and oxaliplatin (Hospira) was tested at a concentration of 50 or 500 ng/ml. […] Cells were harvested with EDTA/trypsin, washed and analysed.
Cell cycle stages were determined based on measurement of cellular DNA content. This allows one to discriminate between cells in the G1-, S- or G2-phase of the cell cycle. In the S-phase DNA duplication occurs whereas in the G2-phase cells grow and prepare for mitosis. Cell cycle analysis was done using the CycleTEST PLUS DNA Reagent Kit from BD Biosciences following the manufacturer's protocol. Flow cytometry acquisition and analysis were performed by using BD FACS CantoII (BD Biosciences) and FlowJo (Tree Star) software.
Kato III cells were pretreated for 4 days with Irinotecan or Docetaxel and analysed for CLDN18.2 expression and cell cycle arrest.

[3] = tested on: Capanl-LVT; assay: Inhibition of proliferation (XTT), Capanl-LVT; details: exposed for 4 days
Procedure: as §1, §2

[4] = tested on: BxPC3-LVT; assay: Inhibition of proliferation (XTT), BxPC3-LVT; details: exposed for 4 days
Procedure: as §1, §2

[5] = tested on: DANG; assay: Inhibition of proliferation (XTT), DANG; details: exposed for 4 days
Procedure: as §1, §2

Compound: O=C1[O][Pt]2([NH][C@@H]3CCCC[C@H]3[NH]2)[O]C1=O [oxaliplatin, [(1R,2R)-cyclohexane-1,2-diamine](ethanedioato-O,O')platinum(II)]
- IC50 Inhibition of Proliferation [1]: 0.05 to 0.1 mg/L
- cell cycle phase distribution [2]: enrichment of cells predominantly in the G1- and G2-phases
- IC50 Inhibition of Proliferation [3]: ~0.1 mg/L
- IC50 Inhibition of Proliferation [4]: 0.5 to 1 mg/L
- IC50 Inhibition of Proliferation [5]: ~0.5 mg/L
